These results are taken from the SangsterLogP compilation.

The term logD denotes the decadic logarithm of the distribution of all forms, ionised or not, between an organic phase and buffer at a given pH. High values mean higher lipophilicity, low ones lower lipophilicity. In general, logP refers to the decadic logarithm of the partition coefficient of the neutral form, usually between octanol and water. A higher logP goes with higher lipophilicity.

The nature of data set [1]: method code SF-AS, from DOI: 10.1021/jm00040a014, PMID: 8035429. Conditions: pH 7.4.
The nature of data set [2]: method code SF-AS, from DOI: 10.1248/cpb.32.4084, PMID: 6099228. The following applies: pH 7.4.
Data set [3] is described as follows: method code SF-ILT, from DOI: 10.1002/ardp.19763091008, PMID: 1008678.
The nature of data set [4]: method code SF-RC, from DOI: 10.1021/jf60186a044, PMID: 4688915.
Data set [5] can be described thus: method code SF-GLC, from DOI: 10.1016/s0021-9673(00)91779-5. Conditions: pH 7.0.
Assay in data set [6]: not given
This is another data set of the same source.

Data set [7] can be described thus: method code SF-AS, from PMID: 7912440.
Assay in data set [8]: not given
This is another data set of the same source.

Data set [9] is described as follows: method code SF-AS, from DOI: 10.1016/0223-5234(96)88239-0. The following applies: pH 2.0.
Assay in data set [10]: not given
The source holds these as a separate data set.

Data set [11] can be described thus: method code SF-RC, from DOI: 10.1021/jm00238a003, PMID: 1120999. The following applies: pH 7.0.
The nature of data set [12]: method code SF-HPLC, from DOI: 10.1002/ps.2780280108.
The nature of data set [13]: method code SF-AS, from DOI: 10.1002/pauz.19770060602.
Data set [14] can be described thus: method code SF, from DOI: 10.1021/jm00140a005, PMID: 7035668. The following applies: pH 12.0.
A short description of data set [15]: method code SF-AS, from DOI: 10.1016/s0021-9673(00)91570-x. The following applies: pH 3.4.
A short description of data set [16]: method code SF-AS, from DOI: 10.1002/jps.2600611027, PMID: 5072421.
Assay in data set [17]: not given
This is another data set of the same source.

Data set [18] in a line: method code SF, from Wang, L.; Li, H.; Wang, X.; Zhang, Z. (1993). Determination of aqueous solubilities and partition coefficients of substitutive ethylketone congeners by generator column. Huanjing Huaxue, 12(2)151-154.
Assay in data set [19]: not given
The source holds these as a separate data set.

Assay in data set [20]: not given
This is another data set of the same source.

Data set [21] is described as follows: method code SF-RC, from DOI: 10.1002/syn.20147. The following applies: pH 7.4.
Assay in data set [22]: not given
The source holds these as a separate data set.

The nature of data set [23]: method code SF-HPLC, from DOI: 10.1023/a:1013643013244, PMID: 11837695. The following applies: pH 6.4.
Assay in data set [24]: not given
This is another data set of the same source.

Data set [25] in a line: method code SF, from DOI: 10.1584/jpestics.12.445.
Assay in data set [26]: not given
The source holds these as a separate data set.

The nature of data set [27]: method code SF, from DOI: 10.1002/jps.2600830715, PMID: 7965680.
A short description of data set [28]: method code SF-AS, from DOI: 10.1016/0378-5173(86)90115-8.
Data set [29] can be described thus: method code SF-AS, from DOI: 10.1213/00000539-199008000-00008, PMID: 2375517.
A short description of data set [30]: method code SF-AS, from DOI: 10.1016/s0969-8051(99)00063-3, PMID: 10628565. Conditions: pH 7.0.
Assay in data set [31]: not given
The source holds these as a separate data set.

The nature of data set [32]: method code SF-AS, from DOI: 10.1002/qsar.19830020405. The following applies: pH 2.0.

`CCOP(=O)(CC(=O)Nc1ccn(C2CSC(CO)O2)c(=O)n1)OCC` (centres undefined): the logD in data set [1] worked out at 0.99.

Compound `CCc1ccc(NC(=O)CN2CCCCC2)cc1` came in with a logD in [2] of 3.52.

With `CCN(CC)C(=O)[C@@H]1[C@@H](C(=O)N(CC)CC)[C@H]2C=C[C@@H]1C2`, the logP in [3] came to 1.16.

In turn, `CC(C)CC(O)C(O)C(CC1CCCCCC1)NC(=O)CN` (centres undefined) showed a logP of 1.52.

Consider `Cc1ccc(C(c2ccc(Cl)cc2)C(Cl)(Cl)Cl)cc1` (centres undefined), for which the logP in data set [4] is 4.47.

Regarding `CCOP(=S)(Oc1ccccc1)c1ccccc1` (centres undefined), in [5], the logD turned out to be 1.79.

On to `N#Cc1ccc(OCC2CCN(CCF)CC2)cc1`, for which the logP in [6] came to 2.8.

Consider `CC(=O)c1cc(C(C)C)ccc1OCC(O)CN` (centres undefined), for which the logP in data set [7] worked out at 0.1.

`NC(=O)c1c(-c2ccc(OCCCc3c[nH]cn3)cc2)no[n+]1[O-]` had a logP in [8] of 1.57.

For the compound `Cc1ccc(C(=O)c2ncc(C(=O)O)n2C)cc1`, the logD in [9] was 2.25.

In data set [10], `O=C(NC1CCN(CCF)CC1)c1ccc(I)cc1` yielded a logP of 2.57.

As to `Cc1nonc1-c1ccc(OCCCc2c[nH]cn2)cc1`, in [8], the logP turned out to be 2.92.

Compound `Nc1ccn([C@@H]2O[C@H](COC(=O)c3ccccc3)[C@@H](O)[C@@H]2O)c(=O)n1` showed a logD in data set [11] of 0.5.

In [12], `COC(=O)c1c(C)[nH]c(-c2ncccc2Cl)c1C(=O)OC` showed a log partition coefficient (logP) of 1.51.

Turning to `CCN(CC)C(=O)C1C2CC3C(OC(=O)C31)C2O` (centres undefined), the logP in data set [3] was found to be 0.15.

As to `O=C1CN(O)C(c2ccccc2)=c2cc(Cl)ccc2=N1`, the logD in [13] (pH 4.0) came to 1.49.

`COc1cc(Cc2cnc(N)nc2N)cc(OC)c1Oc1ccc(N)cc1` showed a pH-dependent lipophilicity (logD) in [14] of 0.9.

For `COc1cc(CC(=O)O)ccc1OCCCC(C)C`, the logD in [15] was 3.3.

In the case of `CCCCCCCCc1ccncc1`, in data set [16], the logP came out at 5.42.

The compound `CCCCc1c(C)oc(=O)c(CCCC)c1O` had a lipophilicity (logP) in [17] of 0.79.

Take `COc1ccc(C(=O)CSc2ccccc2)cc1`: the log partition coefficient (logP) in data set [18] is 2.2.

`CC(C)CC(O)C(O)C(N)NC1CCCCC1` (centres undefined): the logP is 1.86.

In [4], `Cc1ccc(C(c2ccc(C)cc2)C(Cl)(Cl)Cl)cc1` yielded a logP of 3.57.

In turn, `CCCCCc1onc(C)c1N=C1C=C(O)C(=O)c2ccccc21` gave a logP in data set [19] of 3.25.

`c1ccc2c(c1)-c1cccc3cccc-2c13` had a logP in data set [20] of 5.15.

Take `Cc1nc(C#Cc2cc(F)cc(C#N)c2)cs1`: the logD in data set [21] stood at 3.2.

As for `O=C1c2c(O)cc(O)cc2O[C@H](c2ccc(O)c(O)c2)[C@H]1O`, in [22], the logP turned out to be 1.4.

`COc1ccc(C(=O)c2ncc(C(=O)O)n2C)cc1` came in with a logD in [9] of 2.01.

Compound `CN1C(=O)CCC(N2C(=O)c3ccccc3C2=O)C1=O` (centres undefined) yielded a logD in [23] of 1.15.

In the case of `O=C(O)Cc1ccc(OCc2ccccc2)cc1`, in data set [15], the logD is 2.85.

As for `COP(=O)(OC)C(=O)Nc1ccn(C2CSC(COC(=O)P(=O)(OC)OC)O2)c(=O)n1` (centres undefined), the logD in data set [1] is 0.72.

In [24], `CCCCC(C#N)(Cn1cncn1)c1ccc(Cl)cc1` (centres undefined) showed a logP of 3.16.

`O=C1c2ccccc2C(=O)c2c(O)cccc21` returned a logP in data set [20] of 3.52.

In data set [24], `CC(C)(C)C(O)C(Oc1ccc(Cl)cc1)n1cncn1` (centres undefined) registered a logP of 3.05.

Regarding `COc1cc(Cc2cnc(N)nc2N)cc(OC)c1C`, the logD in [14] was determined as 2.14.

`O=C(NC1CCN(CCO)CC1)c1ccc(I)cc1`: in [10], the logP came out at 1.93.

Consider `Nc1ccn([C@@H]2O[C@H](COC(=O)c3cccnc3)[C@@H](O)[C@@H]2O)c(=O)n1`, for which, in data set [11], the logD is -0.6.

As to `CCCCCC(C=O)(CCCC)c1oc(=O)c(CCCC)c(O)c1CCCC` (centres undefined), the logP in data set [17] turned out to be 1.52.

With `C=CCOc1ccccc1C(=C)n1ccnc1`, the logP in [25] was determined as 2.74.

Compound `Cc1nc(NCCN)c(C#N)cc1-c1ccncc1` displayed a logP in [26] of 1.91.

In data set [16], `CCCCCCCCCc1ccncc1` came in with a logP of 6.11.

Take `CC(NC(=O)N(CCCl)N=O)C(=O)NC1CC(C)(C)N(O)C(C)(C)C1` (centres undefined): the lipophilicity (logP) in data set [27] was determined as 1.28.

As to `CN(C(=O)CCC(N)=O)c1ccc(S(=O)(=O)N(C)C)cc1`, the logP in data set [28] is -0.56.

In data set [25], `C=C(c1ccccc1OCCCCCO)n1ccnc1` gave a logP of 2.89.

In turn, `CCCNC(C)C(=O)Nc1ccccc1C` (centres undefined) displayed a logP in [29] of 2.11.

In turn, `CCCCCC(=O)N(C)c1ccc(S(=O)(=O)N(C)C)cc1` showed a logP in data set [28] of 2.16.

In turn, `O=C(CN1CCCCC1)Nc1ccc(Cl)cc1` came in with a logD in [2] of 3.26.

`O=c1[nH]c(Nc2ccccc2)nc2c1ncn2CC(O)CSCCO` (centres undefined) showed a logD in [30] of 0.83.

Regarding `CCCCCN1C(=O)CCC(N2C(=O)c3ccccc3C2=O)C1=O` (centres undefined), in data set [23], the logD is 3.01.

For `CCOP(=S)(Oc1ccc(C)cc1)c1ccccc1` (centres undefined), in data set [5], the logD was 2.22.

For the compound `CC1(C)CC(NC(=O)CNC(=O)N(CCCl)N=O)CC(C)(C)N1O`, the logP in data set [27] amounted to 1.23.

As for `Nc1ccc(S(=O)(=O)Nc2ccnn2-c2ccccc2)cc1`, the logP in [22] amounted to 1.35.

Regarding `NS(=O)(=O)c1ccc(-n2cc(-c3ccccc3)nn2)cc1`, the logP in data set [31] is 2.3.

For `O=c1[nH]c(Nc2ccccc2)nc2c1ncn2CC(O)CO` (centres undefined), the logD in data set [30] amounted to 0.4.

Regarding `CC(C(=O)O)c1cccc(C(=O)c2ccccc2)c1` (centres undefined), the logD in data set [32] was 3.12.

In turn, `COC(=O)c1c(C)[nH]c(-c2cc(Cl)ccn2)c1C(=O)OC` came in with a logP in [12] of 2.63.

In data set [13], `O=C1CN=C(c2ccccn2)c2cc(Br)ccc2N1` showed a logP of 2.05.

On to `Cc1ccc(C(=O)c2ccc(CC(=O)O)n2C)cc1`, for which the logD in data set [32] came out at 2.79.

In [29], `CCN(CC)CCOC(=O)c1ccc(N)cc1Cl` displayed a logP of 2.86.

In [7], `CC(=O)c1cc(C(C)(C)C)ccc1OCC(O)CN` (centres undefined) gave a logP of 0.38.

In turn, `CN1CCN(c2ncc(-c3ccncc3)cc2C#N)CC1` showed a lipophilicity (logP) in data set [26] of 2.96.

For `NS(=O)(=O)c1ccc(-c2cn([C@@H]3O[C@H](CO)[C@@H](O)[C@H](O)[C@H]3O)nn2)cc1`, in data set [31], the logP was -0.1.

In data set [19], `Cc1noc(C)c1NC1=CC(=O)C(=O)c2ccccc21` returned a logP of 1.51.

`Cc1ccc(SCC(=O)c2ccc(C)cc2)cc1`: in data set [18], the log partition coefficient (logP) was 3.19.
